≈ marks a conversion by molar mass, not a printed value.

Assay [1] relates to Mycobacterium tuberculosis. Briefly: Antitubercular activity against Mycobacterium tuberculosis infected in IFNgamma-deficient C57BL/6 mouse assessed bacterial load in spleen at 25 mg/kg administered once daily for 8 days measured 28 days post infection. The class given is functional.
In a further assay the test system is Pseudomonas aeruginosa. Briefly: Antibacterial activity against Pseudomonas aeruginosa by agar dilution method. The class given is functional. In general terms: Agar dilution tests growth on a series of plates holding different concentrations.
The subject of another assay is Escherichia coli. Briefly: Antibacterial activity against Escherichia coli by agar dilution method. The class given is functional.
A further assay concerns Vibrio cholerae. Briefly: Antibacterial activity against Vibrio cholerae by agar dilution method. The class given is functional.
In assay [2] the test system is Mycobacterium tuberculosis. As to the kind of experiment: Antitubercular activity against Mycobacterium tuberculosis H37Rv by microplate alamar blue assay. The class given is functional.
For the next assay, the system named is Citrobacter freundii. As to the kind of experiment: Antibacterial activity against Citrobacter freundii by agar dilution method. The class given is functional.
Another assay relates to Salmonella typhi. As to the kind of experiment: Antibacterial activity against Salmonella typhi by agar dilution method. In kind it is functional, Salmonella enterica subsp. enterica serovar Typhi. The settings on record: Salmonella enterica.
Assay [3] has as its system Staphylococcus epidermidis. As to the kind of experiment: Antibacterial activity against Staphylococcus epidermidis by agar dilution method. In kind it is functional.
For the next assay, the system named is Staphylococcus aureus. Briefly: Antibacterial activity against Staphylococcus aureus by agar dilution method. In kind it is functional.
A further assay has as its system Shigella flexneri. Briefly: Antibacterial activity against Shigella flexneri by agar dilution method. In kind it is functional.
Assay [4] deals with Mycobacterium tuberculosis. As to the kind of experiment: Antitubercular activity against Mycobacterium tuberculosis infected in IFNgamma-deficient C57BL/6 mouse assessed bacterial load in lung at 25 mg/kg administered once daily for 8 days measured 28 days post infection. In kind it is functional.
In a further assay the test system is Klebsiella pneumoniae. As to the kind of experiment: Antibacterial activity against Klebsiella pneumoniae by agar dilution method. In kind it is functional.
Assay [5] has as its system Human immunodeficiency virus 1. Briefly: Antiviral activity against HIV1 3B infected in human MT4 cells after 5 days by spectrophotometric method. In kind it is functional, organism-based. The settings on record: Human immunodeficiency virus 1, 3B, MT4, 120 h.
Assay [6] concerns Mycobacterium tuberculosis. As to the kind of experiment: Antimycobacterial activity against Mycobacterium tuberculosis H37Rv after 3 to 7 days by rapid direct susceptibility test. In kind it is functional.
Assay [7] relates to Mycobacterium tuberculosis. Briefly: Potency index, ratio of rifampicin MIC to test compound MIC for Mycobacterium tuberculosis H37Rv. In kind it is functional.
The subject of assay [8] is Mycobacterium tuberculosis. Briefly: Potency index, ratio of isoniazid MIC to test compound MIC for Mycobacterium tuberculosis H37Rv. In kind it is functional.
Assay [9] has as its system Mycobacterium tuberculosis. Briefly: Potency index, ratio of gatifloxacin MIC to test compound MIC for Mycobacterium tuberculosis H37Rv. The class given is functional.
Assay [10] deals with Human immunodeficiency virus 1. Briefly: Antiviral activity against HIV1 3B infected in human MT4 cells. In kind it is functional, organism-based.
Assay [11] has as its system Mycobacterium tuberculosis. Briefly: Antimycobacterial activity against Mycobacterium tuberculosis H37Rv. In kind it is functional.

As to `O=C(O)c1cn(C2CC2)c2cc(N3CCNCC3)c(F)cc2c1=O` [CIPROFLOXACIN], the figures for the Activity in assay [1] and in assay [4] were 4.64 log10CFU and 6.82 log10CFU, respectively. Further, the minimal inhibitory concentration (MIC) (in general, the lowest concentration found to suppress growth) was 0.1 to 2.5 µg/mL (≈ 0.302 to 7.54 µM) in the assay with Pseudomonas aeruginosa; 0.1 to 2.5 µg/mL (≈ 0.302 to 7.54 µM) with Escherichia coli; 0.1 to 2.5 µg/mL (≈ 0.302 to 7.54 µM) against Vibrio cholerae; 2 µg/mL (≈ 6.04 µM) in assay [2]; 0.1 to 2.5 µg/mL (≈ 0.302 to 7.54 µM) against Citrobacter freundii; 0.1 to 2.5 µg/mL (≈ 0.302 to 7.54 µM) in the assay on Salmonella typhi. In addition, the MIC (in assay [3]; with Staphylococcus aureus; against Shigella flexneri; in the assay on Klebsiella pneumoniae) was 0.1 to 2.5 µg/mL (≈ 0.302 to 7.54 µM) each time.

As for `CCn1cc(C(=O)O)c(=O)c2cc(F)c(N3CCN(CN4C(=O)/C(=N\NC(N)=S)c5cc(Br)ccc54)CC3)cc21`, in [5], the 50% effective concentration (EC50) – broadly, the concentration needed to bring the measured effect to its halfway point – came to 13.9 µg/mL (≈ 22 µM).

Consider `CO/N=C1/C(=O)N(CCn2cc(CN3CCC[C@H]4CN(c5c(F)cc6c(=O)c(C(=O)O)cn(C7CC7)c6c5OC)C[C@H]43)nn2)c2ccccc21`, for which inhibition of growth in assay [6] (MIC) required 0.1 µg/mL (≈ 0.146 µM). In addition, the Ratio was 256 in [7] and above 1024 in assay [8].

The compound `CO/N=C1/C(=O)N(CCCN2CCN(c3c(F)cc4c(=O)c(C(=O)O)cn(C5CC5)c4c3OC)CC2C)c2ccc(F)cc21` (stereo not drawn) showed an MIC in [6] of 0.25 µg/mL (≈ 0.41 µM). For the same compound, the Ratio in [7] and in assay [9] was 2 throughout.

With `CCn1cc(C(=O)O)c(=O)c2cc(F)c(N3CCN(CN4C(=O)/C(=N\NC(N)=S)c5cc(Cl)ccc54)CC3)cc21`, the concentration giving a half-maximal response (EC50) in assay [5] came out at 11.3 µg/mL (≈ 19.3 µM).

`COc1c(N2CCN(CN3C(=O)/C(=N\c4ccc(S(=O)(=O)Nc5nc(C)cc(C)n5)cc4)c4cc(F)ccc43)C(C)C2)c(F)cc2c(=O)c(C(=O)O)cn(C3CC3)c12` (stereo not drawn) had an Activity in assay [10] of 106%. This compound also yielded a half-maximal effective concentration (EC50) in [10] (Human immunodeficiency virus 1, 3B, MT4) of 12.1 µg/mL (≈ 14.9 µM). Moreover, 1.22 µg/mL (≈ 1.5 µM) was the least that counted as inhibitory in assay [11] (MIC).
